The results in this text go back to patent US11524966B1 (Valo Early Discovery, Inc., priority 2017, dated 2022).

The target in the assay is T1, USP28 (His-tagged USP28-FL-mammalian) (Homo sapiens, UniProt Q96RU2).
T1 construct: Expression of USP28 (1-1077)-TEV-6*His (pTT5 vector); made in house; host or cells: Expi293f cells (pTT5 vector)
T1 sequence (Q96RU2 1-1077): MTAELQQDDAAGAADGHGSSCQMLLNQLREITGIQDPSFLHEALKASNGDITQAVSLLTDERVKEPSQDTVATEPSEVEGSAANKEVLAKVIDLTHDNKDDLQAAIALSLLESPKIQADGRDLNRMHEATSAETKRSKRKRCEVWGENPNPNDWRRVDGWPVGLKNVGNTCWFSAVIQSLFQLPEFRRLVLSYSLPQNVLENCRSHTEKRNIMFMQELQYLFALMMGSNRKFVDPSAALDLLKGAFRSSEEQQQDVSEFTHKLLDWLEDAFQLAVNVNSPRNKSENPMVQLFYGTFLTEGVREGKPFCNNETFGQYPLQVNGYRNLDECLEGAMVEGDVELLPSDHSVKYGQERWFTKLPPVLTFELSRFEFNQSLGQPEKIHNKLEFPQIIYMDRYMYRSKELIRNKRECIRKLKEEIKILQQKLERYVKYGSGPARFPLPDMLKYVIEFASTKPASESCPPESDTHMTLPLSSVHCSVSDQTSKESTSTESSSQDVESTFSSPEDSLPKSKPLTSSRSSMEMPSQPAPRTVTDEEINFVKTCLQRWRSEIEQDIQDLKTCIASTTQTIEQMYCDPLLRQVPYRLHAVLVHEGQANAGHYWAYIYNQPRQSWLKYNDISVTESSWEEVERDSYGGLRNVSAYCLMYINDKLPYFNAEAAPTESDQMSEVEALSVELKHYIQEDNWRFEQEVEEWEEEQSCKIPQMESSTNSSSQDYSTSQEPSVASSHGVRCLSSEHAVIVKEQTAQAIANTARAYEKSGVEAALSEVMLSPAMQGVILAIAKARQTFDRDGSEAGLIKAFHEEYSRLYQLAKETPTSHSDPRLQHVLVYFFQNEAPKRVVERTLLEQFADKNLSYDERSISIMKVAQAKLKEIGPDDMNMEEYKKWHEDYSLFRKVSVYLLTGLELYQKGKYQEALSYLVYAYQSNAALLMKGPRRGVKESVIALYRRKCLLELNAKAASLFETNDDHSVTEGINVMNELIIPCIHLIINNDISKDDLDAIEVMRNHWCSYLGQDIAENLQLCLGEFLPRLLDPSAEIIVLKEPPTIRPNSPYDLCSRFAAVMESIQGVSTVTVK
The assay is described as follows: Ubiquitin-Rhodamine 110 Assay for USP28 Activity, Example A-1(a). In kind it is biochemical. The following applies: Ubiquitin-Rhodamine 110 assay, Example A-1(a); read-out: USP28 A-1(a) IC50 range. The procedure, abridged: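 IC50 from 4-parameter logistic fit of percent inhibition versus no-enzyme and DMSO controls; compounds 25 μM to 1.3 nM, 3-fold. Ub-Rh110 cleavage (25 nM, below Km) by […] mammalian-expressed USP28-FL-His ran 45 min at room temperature, stopped with 10 mM citric acid, read ex 485/em 535.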

In the case of `Cc1ccc2c(N)c(C(=O)N[C@H]3COc4cc(N5C[C@@H](N)[C@H](OC(F)(F)F)C5)ccc4C3)sc2n1` (single isomer, unassigned) [Example 3-9], the IC50 (in general, the concentration that inhibits the measured activity by half) lay within 50 to 200 nM.

For `Cc1ccc2c(N)c(C(=O)N[C@H]3COc4cc(N5C[C@H](OC(F)(F)F)[C@@H](N)C5)ccc4C3)sc2n1` (single isomer, unassigned) [Example 3-10], the IC50 lay within 50 to 200 nM.

Regarding `Cc1ccc2c(N)c(C(=O)N[C@H]3COc4c(cc(F)c(N5CCNCC5)c4F)C3)sc2n1` (single isomer, unassigned) [Example 3-17], the IC50 fell in the range of 1 to 50 nM.

Take `Cc1ccc2c(N)c(C(=O)N[C@@H]3COc4c(cc(F)c(N5CCNCC5)c4F)C3)sc2n1` (single isomer, unassigned) [Example 3-18]: the IC50 was in the range of 200 to 2000 nM.

For `Cc1ccc2c(N)c(C(=O)N[C@H]3COc4cc(N5C[C@H](N)CC56COC6)ccc4C3)sc2n1` (single isomer, unassigned) [Example 351], the IC50 lay in the range of 1 to 50 nM.

With `Cc1ccc2c(N)c(C(=O)N[C@H]3COc4cc(N5C[C@@H](N)CC56COC6)ccc4C3)sc2n1` (single isomer, unassigned) [Example 352], the IC50 was 1 to 50 nM.

`O=C(N[C@H]1CCc2c(c(F)cc(N3CC4CCC(C3)N4)c2C(F)F)C1)c1cnc2c(c1)[C@@H]1C[C@@H]1CN2` (single isomer, unassigned) [Example 359]: the IC50 is above 2000 nM.

Turning to `O=C(N[C@H]1CCc2c(c(F)cc(N3CC4CCC(C3)N4)c2C(F)F)C1)c1cnc2c(c1)[C@H]1C[C@H]1CN2` (single isomer, unassigned) [Example 360], the IC50 lay in the range of 1 to 50 nM.

With `O=C(N[C@@H]1CCc2c(c(F)cc(N3CC4CCC(C3)N4)c2C(F)F)C1)c1cnc2c(c1)[C@@H]1C[C@@H]1CN2` (single isomer, unassigned) [Example 361], the IC50 was above 2000 nM.

In the case of `O=C(N[C@@H]1CCc2c(c(F)cc(N3CC4CCC(C3)N4)c2C(F)F)C1)c1cnc2c(c1)[C@H]1C[C@H]1CN2` (single isomer, unassigned) [Example 362], the IC50 is 200 to 2000 nM.

Turning to `Cc1ccc2c(N)c(C(=O)N[C@H]3COc4cc(N5C[C@H](N)[C@@H](F)C5)ccc4C3)sc2n1` [Example 3-7, 3-amino-N-((R)-7-((3S,4S)-3-amino-4-fluoropyrrolidin-1-yl)chroman-3-yl)-6-methylthieno[2,3-b]pyridine-2-carboxamide], the half-inhibitory concentration (IC50) was in the range of 1 to 50 nM.

As for `Cc1ccc2c(N)c(C(=O)N[C@H]3COc4cc(N5C[C@@H](N)[C@H](F)C5)ccc4C3)sc2n1` [Example 3-8, 3-amino-N-((R)-7-((3R,4R)-3-amino-4-fluoropyrrolidin-1-yl)chroman-3-yl)-6-methylthieno[2,3-b]pyridine-2-carboxamide], the IC50 lay in the range of 1 to 50 nM.

Regarding `Cc1ccc2c(N)c(C(=O)N[C@H]3COc4cc(N5CCN[C@@H](C(F)(F)F)C5)ccc4C3)sc2n1` [Example 3-11, 3-amino-6-methyl-N-((R)-7-((R)-3-(trifluoromethyl)piperazin-1-yl)chroman-3-yl)thieno[2,3-b]pyridine-2-carboxamide], the IC50 is 50 to 200 nM.

On to `Cc1ccc2c(N)c(C(=O)N[C@H]3COc4cc(N5CCN[C@H](C(F)(F)F)C5)ccc4C3)sc2n1` [Example 3-12, 3-amino-6-methyl-N-((R)-7-((S)-3-(trifluoromethyl)piperazin-1-yl)chroman-3-yl)thieno[2,3-b]pyridine-2-carboxamide], for which the IC50 was 50 to 200 nM.

For `Cc1ccc2c(N)c(C(=O)N[C@H]3COc4cc(N5CC[C@]6(CCCNC6)C5)ccc4C3)sc2n1` [Example 3-13, N-((R)-7-((S)-2,7-diazaspiro[4.5]decan-2-yl)chroman-3-yl)-3-amino-6-methylthieno[2,3-b]pyridine-2-carboxamide], the IC50 lay in the range of 1 to 50 nM.

On to `Cc1ccc2c(N)c(C(=O)N[C@H]3COc4cc(N5CC[C@@]6(CCCNC6)C5)ccc4C3)sc2n1` [Example 3-14, N-((R)-7-((R)-2,7-diazaspiro[4.5]decan-2-yl)chroman-3-yl)-3-amino-6-methylthieno[2,3-b]pyridine-2-carboxamide], for which the IC50 lay in the range of 1 to 50 nM.

For `O=C(N[C@H]1COc2cc(N3CC4CCC(C3)N4)ccc2C1)c1cnc2c(c1)[C@@H]1C[C@@H]1CN2` [Example 3-15, (1aS,7bR)-N-((3R)-7-(3,8-diazabicyclo[3.2.l]octan-3-yl)chroman-3-yl)-1a,2,3,7b-tetrahydro-1H-cyclopropa[c][1,8]naphthyridine-6-carboxamide], the IC50 lay in the range of 1 to 50 nM.

In the case of `O=C(N[C@H]1COc2cc(N3CC4CCC(C3)N4)ccc2C1)c1cnc2c(c1)[C@H]1C[C@H]1CN2` [Example 3-16, (1aR,7bS)-N-((3R)-7-(3,8-diazabicyclo[3.2.1]octan-3-yl)chroman-3-yl)-1a,2,3,7b-tetrahydro-1H-cyclopropa[c][1,8]naphthyridine-6-carboxamide], the IC50 was in the range of 200 to 2000 nM.

Take `Cc1ccc2c(N)c(C(=O)N[C@H]3COc4cc(N5CCC(F)(F)CC5)ccc4C3)sc2n1` [Example 5-1, (R)-3-amino-N-(7-(4,4-difluoropiperidin-1-yl)chroman-3-yl)-6-methylthieno[2,3-b]pyridine-2-carboxamide]: the half-inhibitory concentration (IC50) is 1 to 50 nM.

In the case of `Cc1ccc2c(N)c(C(=O)N[C@H]3COc4cc(N5CCS(=O)(=O)CC5)ccc4C3)sc2n1` [Example 5-2, (R)-3-amino-N-(7-(1,1-dioxidothiomorpholino)chroman-3-yl)-6-methylthieno[2,3-b]pyridine-2-carboxamide], the IC50 is 1 to 50 nM.

With `Cc1ccc2c(N)c(C(=O)N[C@H]3COc4cc(N5CC(O)(C(F)(F)F)C5)ccc4C3)sc2n1` [Example 5-3, (R)-3-amino-N-(7-(3-hydroxy-3-(trifluoromethyl)azetidin-1-yl)chroman-3-yl)-6-methylthieno[2,3-b]pyridine-2-carboxamide], the half-inhibitory concentration (IC50) was 1 to 50 nM.

For `Cc1ccc2c(N)c(C(=O)N[C@H]3COc4cc(N5CC6COCC(C5)C6(F)F)ccc4C3)sc2n1` [Example 5-4, 3-amino-N-((3R)-7-(9,9-difluoro-3-oxa-7-azabicyclo[3.3.1]nonan-7-yl)chroman-3-yl)-6-methylthieno[2,3-b]pyridine-2-carboxamide], the IC50 lay within 1 to 50 nM.

On to `Cc1ccc2c(N)c(C(=O)N[C@H]3COc4cc(N5CCC(C(=O)O)CC5)ccc4C3)sc2n1` [Example 6-1, (R)-1-(3-(3-Amino-6-methylthieno[2,3-b]pyridine-2-carboxamido)chroman-7-yl)piperidine-4-carboxylic Acid], for which the IC50 was in the range of 200 to 2000 nM.

`Cc1ccc2c(N)c(C(=O)N[C@H]3COc4cc(N5CC[C@@H](C(=O)O)C5)ccc4C3)sc2n1` [Example 6-2, (R)-1-((R)-3-(3-amino-6-methylthieno[2,3-b]pyridine-2-carboxamido)chroman-7-yl)pyrrolidine-3-carboxylic acid]: the IC50 lay within 50 to 200 nM.

As for `Cc1ccc2c(N)c(C(=O)N[C@H]3COc4cc(N5CC[C@H](C(=O)O)C5)ccc4C3)sc2n1` [Example 6-3, (S)-1-((R)-3-(3-amino-6-methylthieno[2,3-b]pyridine-2-carboxamido)chroman-7-yl)pyrrolidine-3-carboxylic acid], the IC50 lay within 50 to 200 nM.

In the case of `Cc1cnc2c(N)c(C(=O)N[C@H]3CCc4cc(N5CC(C(=O)O)C5)ccc4C3)sc2n1` [Example 6-4, (S)-1-(6-(7-amino-3-methylthieno[2,3-b]pyrazine-6-carboxamido)-5,6,7,8-tetrahydronaphthalen-2-yl)azetidine-3-carboxylic acid], the concentration for half-maximal inhibition (IC50) is 200 to 2000 nM.

With `Cc1ccc2c(N)c(C(=O)N[C@H]3COc4cc(N5CCC(O)CC5)ccc4C3)sc2n1` [Example 7-1, (R)-3-amino-N-(7-(4-hydroxypiperidin-1-yl)chroman-3-yl)-6-methylthieno[2,3-b]pyridine-2-carboxamide], the half-maximal inhibitory concentration (IC50) was 1 to 50 nM.

Regarding `Cc1ccc2c(N)c(C(=O)N[C@H]3COc4cc(N5CCC[C@](C)(O)C5)ccc4C3)sc2n1` [Example 7-2], the IC50 was 1 to 50 nM.

Take `Cc1ccc2c(N)c(C(=O)N[C@H]3COc4cc(N5CCC[C@@](C)(O)C5)ccc4C3)sc2n1` [Example 7-3, 3-amino-N-((R)-7-((R)-3-hydroxy-3-methylpiperidin-l-yl)chroman-3-yl)-6-methylthieno[2,3-b]pyridine-2-carboxamide]: the IC50 lay within 1 to 50 nM.
